Results published in PMC8286840, “Identifying SARS-CoV-2 antiviral compounds by screening for small molecule inhibitors of Nsp3 papain-like protease” (Biochemical Journal, 2021).
Structures can show the parent of a compound that is named as a salt. Where two headings read alike, the source gives them in different places.

What was measured:
[1] = molecular target: T1, SARS-CoV-2 PLpro (nsp3 1564–1878) (Severe acute respiratory syndrome coronavirus 2, UniProt P0DTD1); experiment: biochemical; parameters: FRET-quenched peptide (Pro3) cleavage by PLpro, 10 min pre-incubation, slope over 20 min, normalised to no-compound control; conditions: high concentration screen, read-out: % of control remaining
Description: The plates were organized with columns 3–22 containing the compounds; the remaining columns were used for reaction controls including substrate only and substrate with enzyme but no compound (Figure 3Aii). The PLpro enzyme was pre-incubated with the compounds for 10 min, and then the reaction was initiated by the addition of substrate. […] We incubated the inhibitors with PLpro before the enzymatic reaction so that the slow-binding inhibitors will not be missed out [21]. […] Fluorescence was read on a Spark multimode microplate reader (Tecan) with an excitation wavelength at 330 nm and emission wavelength at 420 nm. […] An amount of 5 µl of the enzyme was pre-incubated with compounds for 10 min before the addition of 15 µl substrate. Fluorescence was monitored at 2 min for 20 min with 3 min intervals giving a total of seven readings.

[2] = molecular target: T1, SARS-CoV-2 PLpro (nsp3 1564–1878); experiment: biochemical; parameters: FRET-quenched peptide (Pro3) cleavage by PLpro, 10 min pre-incubation, slope over 20 min, normalised to no-compound control; conditions: low concentration screen, read-out: % of control remaining

CC(C)C[C@H](NC(=O)[C@H](CCc1ccccc1)NC(=O)CN1CCOCC1)C(=O)N[C@@H](Cc1ccccc1)C(=O)N[C@@H](CC(C)C)C(=O)[C@@]1(C)CO1 [Carfilzomib (PR-171)]
remaining activity at 3.75 µM ([1]; Well no.=5173): 97.1%
remaining activity at 1.25 µM ([2]; Well no.=5173): 103%

NC(=O)N[C@@H](CCC(=O)O)C(=O)O [Carglumic Acid]
remaining activity at 3.75 µM ([1]; Well no.=7594): 102%
remaining activity at 1.25 µM ([2]; Well no.=7594): 99.7%

CN(C)C(=O)N[C@H]1CC[C@H](CCN2CCN(c3cccc(Cl)c3Cl)CC2)CC1 [Cariprazine (hydrochloride)]
remaining activity at 3.75 µM ([1]; Well no.=6661): 103%
remaining activity at 1.25 µM ([2]; Well no.=6661): 108%

CCCC(C)(COC(N)=O)COC(=O)NC(C)C (stereo not shown) [Carisoprodol]
remaining activity at 3.75 µM ([1]; Well no.=380): 95.3%
remaining activity at 1.25 µM ([2]; Well no.=380): 95.8%

Cc1c(C(=O)O)c(O)cc2c1C(=O)c1c(O)c([C@@H]3O[C@H](CO)[C@@H](O)[C@H](O)[C@H]3O)c(O)c(O)c1C2=O [Carminic acid]
remaining activity at 3.75 µM ([1]; Well no.=3101): 103%
remaining activity at 1.25 µM ([2]; Well no.=3101): 102%

O=NN(CCCl)C(=O)NCCCl [Carmustine]
remaining activity at 3.75 µM ([1]; Well no.=137): 102%
remaining activity at 1.25 µM ([2]; Well no.=137): 102%

CC(C)c1cc2c(c(O)c1O)[C@@]1(C(=O)O)CCCC(C)(C)[C@@H]1CC2 [Carnosic acid]
remaining activity at 3.75 µM ([1]; Well no.=4038): 104%
remaining activity at 1.25 µM ([2]; Well no.=4038): 101%

CC(C)(C)NCC(O)COc1cccc2c1CCC(=O)N2 (stereo not shown) [Carteolol (hydrochloride)]
remaining activity at 3.75 µM ([1]; Well no.=7623): 97.2%
remaining activity at 1.25 µM ([2]; Well no.=7623): 101%

COc1ccccc1OCCNCC(O)COc1cccc2[nH]c3ccccc3c12 (stereo not shown) [Carvedilol]
remaining activity at 3.75 µM ([1]; Well no.=1569): 103%
remaining activity at 3.75 µM ([1]; Well no.=4051): 104%
remaining activity at 3.75 µM ([1]; Well no.=6702): 97.8%
remaining activity at 1.25 µM ([2]; Well no.=1569): 99.6%
remaining activity at 1.25 µM ([2]; Well no.=4051): 103%
remaining activity at 1.25 µM ([2]; Well no.=6702): 97.7%

NC(=O)c1ccc(-c2nc(-c3ccc4c(c3)OCCO4)c(-c3ccccn3)[nH]2)cc1 [Casein Kinase I Inhibitor, D4476]
remaining activity at 3.75 µM ([1]; Well no.=2372): 99.2%
remaining activity at 1.25 µM ([2]; Well no.=2372): 102%

O=C(O)C=Cc1cc(Br)c(Br)c(Br)c1Br [Casein Kinase II Inhibitor III, TBCA]
remaining activity at 3.75 µM ([1]; Well no.=2374): 104%
remaining activity at 1.25 µM ([2]; Well no.=2374): 102%

COc1cc(Nc2ncc3ccn(-c4cccc(CCC#N)c4)c3n2)cc(OC)c1OC [Casein Kinase II Inhibitor IV]
remaining activity at 3.75 µM ([1]; Well no.=2381): 105%
remaining activity at 1.25 µM ([2]; Well no.=2381): 104%

CC[C@H](C)C[C@H](C)CCCCCCCCC(=O)N[C@H]1C[C@@H](O)[C@@H](NCCN)NC(=O)[C@@H]2[C@@H](O)CCN2C(=O)[C@H]([C@H](O)CCN)NC(=O)[C@H]([C@H](O)[C@@H](O)c2ccc(O)cc2)NC(=O)[C@@H]2C[C@@H](O)CN2C(=O)[C@H]([C@@H](C)O)NC1=O [Caspofungin Acetate]
remaining activity at 3.75 µM ([1]; Well no.=5317): 95.7%
remaining activity at 1.25 µM ([2]; Well no.=5317): 99.9%

O[C@H]1[C@H](O)[C@@H](O)CN2CC[C@H](O)[C@H]12 [Castanospermine]
remaining activity at 3.75 µM ([1]; Well no.=3135): 102%
remaining activity at 1.25 µM ([2]; Well no.=3135): 102%

OC[C@H]1O[C@@H](O[C@@H]2OC=C[C@H]3[C@H](O)[C@@H]4O[C@]4(CO)[C@@H]23)[C@H](O)[C@@H](O)[C@@H]1O [Catalpol]
remaining activity at 3.75 µM ([1]; Well no.=3274): 103%
remaining activity at 1.25 µM ([2]; Well no.=3274): 102%

CCC1=C[C@@H]2CN3CCc4c([nH]c5ccccc45)[C@@](C(=O)OC)(C2)[C@@H]13 [Catharanthine]
remaining activity at 3.75 µM ([1]; Well no.=3595): 107%
remaining activity at 1.25 µM ([2]; Well no.=3595): 104%

CCN1/C(=C/C(C)=O)Sc2ccc(OC)cc21 [Cdc2-Like Kinase Inhibitor, TG003]
remaining activity at 3.75 µM ([1]; Well no.=2410): 109%
remaining activity at 1.25 µM ([2]; Well no.=2410): 106%

O=C1N=C(NCc2cccs2)S/C1=C\c1ccc2ncccc2c1 [Cdk1 Inhibitor IV, RO-3306]
remaining activity at 3.75 µM ([1]; Well no.=2347): 104%
remaining activity at 1.25 µM ([2]; Well no.=2347): 103%

CCn1cnc2c(Nc3cccc(Cl)c3)nc(N[C@@H]3CCCC[C@@H]3N)nc21 [Cdk1 Inhibitor, CGP74514A]
remaining activity at 3.75 µM ([1]; Well no.=2366): 96.1%
remaining activity at 1.25 µM ([2]; Well no.=2366): 96.7%

O=C1Nc2ccccc2/C1=C\c1c(Cl)[nH]c2ccccc12 [Cdk1 Inhibitor]
remaining activity at 3.75 µM ([1]; Well no.=2364): 104%
remaining activity at 1.25 µM ([2]; Well no.=2364): 101%

Nc1nc(Nc2ccc(S(N)(=O)=O)cc2)nn1C(=S)Nc1c(F)cccc1F [Cdk1/2 Inhibitor III]
remaining activity at 3.75 µM ([1]; Well no.=2368): 102%
remaining activity at 1.25 µM ([2]; Well no.=2368): 99.3%

Nc1[nH]nc2nc3ccccc3nc12 [Cdk1/5 Inhibitor]
remaining activity at 3.75 µM ([1]; Well no.=2370): 98.7%
remaining activity at 1.25 µM ([2]; Well no.=2370): 96.8%

COc1ccc(CNc2nc(N(CCO)CCO)nc3c2ncn3C(C)C)cc1 [Cdk2 Inhibitor III]
remaining activity at 3.75 µM ([1]; Well no.=2416): 110%
remaining activity at 1.25 µM ([2]; Well no.=2416): 107%

NS(=O)(=O)c1ccc(N=Nc2c(O)[nH]c3ccc(Br)cc23)cc1 [Cdk2 Inhibitor II]
remaining activity at 3.75 µM ([1]; Well no.=2383): 103%
remaining activity at 1.25 µM ([2]; Well no.=2383): 102%

CCN(CC)C(=O)c1ccc(Nc2nc(OCC3CCCCC3)c3[nH]cnc3n2)cc1 [Cdk2 Inhibitor IV, NU6140]
remaining activity at 3.75 µM ([1]; Well no.=2418): 94.5%
remaining activity at 1.25 µM ([2]; Well no.=2418): 100%

COc1ccc(OC)c2c(=S)c3ccccc3[nH]c12 [Cdk4 Inhibitor II, NSC 625987]
remaining activity at 3.75 µM ([1]; Well no.=2406): 108%
remaining activity at 1.25 µM ([2]; Well no.=2406): 102%

O=C1NC(=O)c2c1c1c3ccccc3[nH]c1c1[nH]c3cc(Br)ccc3c21 [Cdk4 Inhibitor]
remaining activity at 3.75 µM ([1]; Well no.=2404): 99.9%
remaining activity at 1.25 µM ([2]; Well no.=2404): 99.9%

Nc1n[nH]c(N)c1N=Nc1ccc(O)cc1 [Cdk9 Inhibitor II]
remaining activity at 3.75 µM ([1]; Well no.=2395): 103%
remaining activity at 1.25 µM ([2]; Well no.=2395): 104%

CC(C)n1cnc2c(NCc3ccccc3O)nc(NCCCO)nc21 [Cdk Inhibitor, p35]
remaining activity at 3.75 µM ([1]; Well no.=2387): 97%
remaining activity at 1.25 µM ([2]; Well no.=2387): 94.5%

CC(C)c1nn(-c2c(Cl)cccc2Cl)c2nc(Cc3ccc(OCCO)cc3)[nH]c(=O)c12 [Cdk/Crk Inhibitor]
remaining activity at 3.75 µM ([1]; Well no.=2420): 105%
remaining activity at 1.25 µM ([2]; Well no.=2420): 105%

COc1cc2c(Oc3ccc4[nH]c(C)cc4c3F)ncnc2cc1OCCCN1CCCC1 [Cediranib (AZD2171)]
remaining activity at 3.75 µM ([1]; Well no.=4999): 103%
remaining activity at 1.25 µM ([2]; Well no.=4999): 101%

N[C@@H](C(=O)N[C@@H]1C(=O)N2C(C(=O)O)=C(Cl)CS[C@H]12)c1ccccc1 [Cefaclor]
remaining activity at 3.75 µM ([1]; Well no.=88): 101%
remaining activity at 1.25 µM ([2]; Well no.=88): 99.7%

Cc1nnc(SCC2=C(C(=O)O)N3C(=O)[C@@H](NC(=O)Cn4cnnn4)[C@H]3SC2)s1 [Cefazolin sodium]
remaining activity at 3.75 µM ([1]; Well no.=178): 99.4%
remaining activity at 1.25 µM ([2]; Well no.=178): 101%
